From PMC8966651, “PKPD Modeling of the Inoculum Effect of Acinetobacter baumannii on Polymyxin B in vivo” (Frontiers in Pharmacology, 2022)
Counter-ions that a name gives are not always drawn. Like-named read-outs stand apart in the source and are kept apart here. Bridge positions count the residues as written; N and C are the ends. Square brackets hold non-standard residues; d marks the D form. Peptide text beside a SMILES is read from it. * marks the point of attachment. X1 = CC[C@H](C)CCCCC(=O)*; Dab = NCC[C@H](N)C(=O)O

Tests used:
[1] = PMB pharmacokinetics after a single subcutaneous dose in neutropenic thigh-infected mice (two-compartment model); type: in vivo; settings: for Tmax: neutropenic mice infected with 10^6 CFU/thigh, n = 3 per time point, read-out: time to peak (Tmax)
Procedure: (§1) Animal experiments were carried out according to the EC Directive 2010/63/EU. They were approved by the local ethics committee (COMETHEA) and registered by the French Ministry of Higher Education and Research (approval numbers: 2019022216097190 and 2017072415099072). Five-week-old male Swiss RjOrl mice (n = 296) weighing 34 ± 2 g (mean ± standard deviation [SD]) were obtained from Janvier Labs (Saint-Berthevin, France). All animals were acclimatized in ventilated racks in a temperature-regulated environment with a 12 h light-dark cycle, with free access to food and water for a minimum of 5 days before the beginning of the experiment. Neutropenia was induced by intraperitoneal administrations of cyclophosphamide at 150 and 100 mg/kg, 4 days and 1 day prior to experimental infection, respectively ([Landersdorfer et al., 2018]). Thigh infection was induced by intramuscular administration of 0.1 ml of a bacterial suspension of 10^6, 10^7 or 10^8 CFU/ml (corresponding to 10^5, 10^6 and 10^7 CFU/thigh, respectively), into one of the posterior thigh muscles. Thus, three groups of mice were distinguished according to the inoculum injected (n = 76, 146 and 74 for 10^5, 10^6 and 10^7 CFU/thigh, respectively) Each group was divided into two subgroups: treated (n = 48, 116 and 45 for 10^5, 10^6 and 10^7 CFU/thigh, respectively) and control mice (n = 28, 30 and 29 for 10^5, 10^6 and 10^7 CFU/thigh, respectively).
(§2) Two hours after bacterial inoculation, mice received either a single subcutaneous administration of PMB (1, 15 or 40 mg/kg for mice infected with 10^6 and 10^7 CFU/thigh, and 15 or 40 mg/kg for mice infected with 10^5 CFU/thigh), or a subcutaneous administration of saline solution (control group).
The PK of PMB was determined in neutropenic mice infected with the bacterial inoculum size of 10^6 CFU/thigh (n = 56). Mice were anesthetized by isoflurane (AbbVie, Rungis, France) inhalation (3%) for 5 min at each sampling time. Blood samples were collected by intracardiac puncture into heparinized tubes up to 24 h after PMB administration for a total of 7 time points per dose level (n = 3 animals per time point). Plasma was separated from the whole blood after centrifugation at 4,000 rpm for 10 min at 4°C and divided into two samples. The first sample was used to determine total PMB concentrations and the second one (0.15 ml) was ultrafiltered (4000 rpm for 30 min at room temperature) using Centrifree® ultrafiltration devices from Millipore (Merck KGaA) to determine unbound PMB concentrations and consequently protein binding. The non-specific binding of PMB to the membrane of the Centrifree® ultrafiltration devices ([Sader et al., 2012]) was determined by ultrafiltration of PMB solutions in phosphate buffer (pH7.2) at concentrations ranging from 0.2 to 7.5 mg/L and was used to correct ultrafiltrate concentrations. Plasma samples and ultrafiltrates were stored at −20°C until further analysis. Total and unbound PMB concentrations were determined by a liquid chromatography tandem mass spectrometry (LS-MS/MS) method (Supplemental Material).
A PKPD model was developed in two steps to quantify the exposure-effect relationship of PMB in infected mice. First, time courses of total and unbound PMB concentrations were modeled and then, PK parameters were fixed during development of the PD part of the PKPD model.
Different structural models including one, two or three compartments, linear, nonlinear (Michaelis-Menten) or parallel linear/nonlinear elimination were evaluated to describe PK data. Models with linear and nonlinear absorption were also tested. Additive, proportional and exponential residual error models were explored.
Model selection was based on objective function value (OFV) and goodness of fit (GOF) plots. When two models were nested, a decrease in OFV of at least 3.84 (chi square 1df p = 0.05) was needed to select the most complex model. […]

[2] = system: A. baumannii (CS01); assay: Neutropenic mouse thigh infection model, bacterial counts after PMB; type: in vivo, Acinetobacter baumannii
Procedure: A clinical strain of A. baumannii (CS01), isolated from a patient with a meningitis (Seville, Spain) before treatment with CST, was used during this study ([López-Rojas et al., 2013]). Before each experiment, the strain was cultured in 5 ml of cation adjusted Muller-Hinton broth II (MHB) (Biomérieux, Marcy-l’Etoile, France) and incubated overnight at 37 ± 2°C with constant shaking (150–170 rpm). This overnight suspension was diluted 1:50 in MHB and was incubated with constant shaking at 35°C during 2 h until an OD600nm of 0.26 was achieved (Ultrospec10, Biochrom Ltd., Cambridge, United Kingdom), corresponding to a bacterial count of 10^8 CFU/ml in exponential growth phase. The bacterial suspension was centrifuged (3,000 rpm, 6 min), broth was removed and replaced by the same volume of sterile saline solution. This suspension was then diluted to obtain inocula of 10^7 and 10^6 CFU/ml. Samples of the inoculation solutions were serially diluted on saline, plated on Muller-Hinton agar plates (Biomérieux, Marcy-l’Etoile, France) and incubated overnight at 37°C.
as §1, §2
Mice (n = 240) were sacrificed at 6 different time points: just prior to the start of the therapy (0 h) and at 2, 4, 6, 8 and 24 h after PMB administration. A total of 3-6 mice were sacrificed at each time point. Thigh muscles were collected and homogenized with 1 ml of sterile saline solution using potters Elvehjem-type tissue grinders (Thermo Fischer Scientific, Illkirch-Graffenstaden, France). Homogenates were serially diluted in saline, plated on Muller-Hinton agar plates and incubated overnight at 37°C. Bacterial colonies were counted and expressed as log10 numbers of CFU/thigh. The lower limit of quantification (LOQ) was set to 800 CFU/ml corresponding to 2.9 log10 CFU/thigh.

[3] = ultracentrifugation, ref Landersdorfer et al., 2018, cited from earlier work
Text: This discrepancy may be explained by differences in methodology. We used ultra-filtration after correction for non-specific adsorption on membranes to determine unbound fraction individually in infected mice, whereas the previous study used ultracentrifugation and pooled plasma sampled drawn from infected mi ...

[4] = final PK model, estimate (%RSE)

In the case of `CC[C@H](C)CCCCC(=O)N[C@@H](CCN)C(=O)N[C@H](C(=O)N[C@@H](CCN)C(=O)N[C@H]1CCNC(=O)[C@H]([C@@H](C)O)NC(=O)[C@H](CCN)NC(=O)[C@H](CCN)NC(=O)[C@H](CC(C)C)NC(=O)[C@@H](Cc2ccccc2)NC(=O)[C@H](CCN)NC1=O)[C@@H](C)O` [PMB, Polymyxin B sulfate] (X1-[Dab]T[Dab][Dab][Dab][dF]L[Dab][Dab]T; lactam 4-C), the “increase of total Cmax when dose increased from 1 to 40 mg/kg” value ([1]; SC, plasma, infected mice) is reported as 15 fold, the Maximum absorption rate ([1]; final PK model, saturable SC absorption, estimate (%RSE), doses 1, 15, 40 mg/kg) is reported as 14.7 (10.3) mg/h/kg and the “Amount in the subcutaneous compartment that produces 50% of the maximum absorption rate” value [1, 4] is reported as 2.24 (41.4) mg/kg. The “Distribution volume of the central compartment” value [1, 4] was 0.740 (16.7) L/kg, the “Distribution volume of the peripheral compartment” value [1, 4] was 0.743 (16.4) L/kg and the Intercompartmental clearance [1, 4] was 0.315 (27.3) L/h/kg. The Cmax ([1]; male, Swiss RjOrl, mouse, plasma, sc, 1 mg/kg, plasma, single SC dose 1 mg/kg, mean ± SD, infected mice 10^6 CFU/thigh, LC-MS/MS, SD, read-out: Total PMB peak concentration (Cmax)) was 920 ± 140 ng/mL, the Cmax ([1]; male, Swiss RjOrl, mouse, plasma, sc, 40 mg/kg, plasma, single SC dose 40 mg/kg, mean ± SD, infected mice 10^6 CFU/thigh, LC-MS/MS, SD, read-out: Total PMB peak concentration (Cmax)) was 13800 ± 810 ng/mL and the Cmax ([1]; male, Swiss RjOrl, mouse, plasma, sc, 40 mg/kg, this study, SC, highest dose 40 mg/kg, read-out: peak concentrations at the highest dose) was 15000 ng/mL. It also gave a CL/F ([1]; male, Swiss RjOrl, mouse, plasma, sc, final PK model, linear elimination, estimate (%RSE), read-out: Clearance (converted)) of 7.28 mL/min/kg, a Tmax ([1]; male, Swiss RjOrl, mouse, plasma, single SC dose 1 mg/kg, LC-MS/MS) of 0.5 h and a Tmax ([1]; male, Swiss RjOrl, mouse, plasma, single SC dose 40 mg/kg, LC-MS/MS) of 2 h. The “efficacy of PMB” value ([2]; 15 mg/kg SC, two highest inocula (10^6 and 10^7 CFU/thigh)) was “moderate efficacy”, the bacterial load reduction ([2]; 24 h after 15 mg/kg PMB SC, inoculum 10^5 CFU/thigh) was 2.6 ± 1.2 log10 CFU/thigh and the bacterial load reduction ([2]; 24 h after 40 mg/kg PMB SC, inoculum 10^5 CFU/thigh) was 2.5 ± 2.3 log10 CFU/thigh. For the same compound, the bacterial load reduction ([2]; 24 h after 40 mg/kg PMB SC, inoculum 10^6 CFU/thigh) was 3.5 ± 0.9 log10 CFU/thigh, the bacterial load reduction ([2]; 24 h after 40 mg/kg PMB SC, inoculum 10^7 CFU/thigh) was 2.1 ± 1.4 log10 CFU/thigh and the “bacterial counts compared with control group” value ([2]; PMB 1 mg/kg single SC dose, data not shown) was “no differences in bacterial counts with the control group”. For the same compound, the plasma protein binding ([3]; mouse plasma, pooled plasma spiked with PMB) was ~90% and the unbound fraction ([3]; pooled plasma from infected mice spiked with PMB) was 0.086.
